Data taken from ChEMBL document CHEMBL5727633, “Therapeutic compounds” (2020).
pIC50: −log10 of the molar value.

target: Bromodomain-containing protein 4 (Homo sapiens, UniProt O60885); test: In Vitro Enzyme Inhibition Assay-BRD4 Inhibition: Inhibition of BRD4 was determined as described previously. See, e.g., U.S. Pat. No. 9,034,900.

pIC50	SMILES
< 5.30	Cn1cc(-c2cnn(CC3CC3)c2)c(-c2ccc(C(=O)O)cc2)cc1=O

target: CREB-binding protein (Homo sapiens, UniProt Q92793); test: In Vitro CBP Inhibition: The CBP-inhibitory activity of the compounds described herein was determined by calculating the IC50. More specifically, CBP inhibitor activity was assayed as follows: CBP was cloned and expressed in E. coli as His-tag protein and purified by Nickel affinity and gel-filtration chromatography. […] CBP binding and inhibition is assessed by monitoring the interaction of biotinylated H4-tetraacetyl peptide (AnaSpec, H4K5/8/12/16(Ac), biotin-labeled) with the target using the AlphaScreen technology (Perkin Elmer). In a 384-well ProxiPlate CBP (50 nM final) was combined with peptide (20 nM final) in 50 mM HEPES (pH 7.3), 10 mM NaCl, 0.25 mM TCEP, 0.1% (w/v) BSA, and 0.005% (w/v) Brij-35 either in the presence of DMSO (final 0.4% DMSO) or compound dilution series in DMSO. After 20 min incubation at room temp, Alpha-streptavidin donor beads and Nickel Chelate acceptor beads were added to a final concentration of 5 μg/mL.
Sequence (Q92793 whole entry): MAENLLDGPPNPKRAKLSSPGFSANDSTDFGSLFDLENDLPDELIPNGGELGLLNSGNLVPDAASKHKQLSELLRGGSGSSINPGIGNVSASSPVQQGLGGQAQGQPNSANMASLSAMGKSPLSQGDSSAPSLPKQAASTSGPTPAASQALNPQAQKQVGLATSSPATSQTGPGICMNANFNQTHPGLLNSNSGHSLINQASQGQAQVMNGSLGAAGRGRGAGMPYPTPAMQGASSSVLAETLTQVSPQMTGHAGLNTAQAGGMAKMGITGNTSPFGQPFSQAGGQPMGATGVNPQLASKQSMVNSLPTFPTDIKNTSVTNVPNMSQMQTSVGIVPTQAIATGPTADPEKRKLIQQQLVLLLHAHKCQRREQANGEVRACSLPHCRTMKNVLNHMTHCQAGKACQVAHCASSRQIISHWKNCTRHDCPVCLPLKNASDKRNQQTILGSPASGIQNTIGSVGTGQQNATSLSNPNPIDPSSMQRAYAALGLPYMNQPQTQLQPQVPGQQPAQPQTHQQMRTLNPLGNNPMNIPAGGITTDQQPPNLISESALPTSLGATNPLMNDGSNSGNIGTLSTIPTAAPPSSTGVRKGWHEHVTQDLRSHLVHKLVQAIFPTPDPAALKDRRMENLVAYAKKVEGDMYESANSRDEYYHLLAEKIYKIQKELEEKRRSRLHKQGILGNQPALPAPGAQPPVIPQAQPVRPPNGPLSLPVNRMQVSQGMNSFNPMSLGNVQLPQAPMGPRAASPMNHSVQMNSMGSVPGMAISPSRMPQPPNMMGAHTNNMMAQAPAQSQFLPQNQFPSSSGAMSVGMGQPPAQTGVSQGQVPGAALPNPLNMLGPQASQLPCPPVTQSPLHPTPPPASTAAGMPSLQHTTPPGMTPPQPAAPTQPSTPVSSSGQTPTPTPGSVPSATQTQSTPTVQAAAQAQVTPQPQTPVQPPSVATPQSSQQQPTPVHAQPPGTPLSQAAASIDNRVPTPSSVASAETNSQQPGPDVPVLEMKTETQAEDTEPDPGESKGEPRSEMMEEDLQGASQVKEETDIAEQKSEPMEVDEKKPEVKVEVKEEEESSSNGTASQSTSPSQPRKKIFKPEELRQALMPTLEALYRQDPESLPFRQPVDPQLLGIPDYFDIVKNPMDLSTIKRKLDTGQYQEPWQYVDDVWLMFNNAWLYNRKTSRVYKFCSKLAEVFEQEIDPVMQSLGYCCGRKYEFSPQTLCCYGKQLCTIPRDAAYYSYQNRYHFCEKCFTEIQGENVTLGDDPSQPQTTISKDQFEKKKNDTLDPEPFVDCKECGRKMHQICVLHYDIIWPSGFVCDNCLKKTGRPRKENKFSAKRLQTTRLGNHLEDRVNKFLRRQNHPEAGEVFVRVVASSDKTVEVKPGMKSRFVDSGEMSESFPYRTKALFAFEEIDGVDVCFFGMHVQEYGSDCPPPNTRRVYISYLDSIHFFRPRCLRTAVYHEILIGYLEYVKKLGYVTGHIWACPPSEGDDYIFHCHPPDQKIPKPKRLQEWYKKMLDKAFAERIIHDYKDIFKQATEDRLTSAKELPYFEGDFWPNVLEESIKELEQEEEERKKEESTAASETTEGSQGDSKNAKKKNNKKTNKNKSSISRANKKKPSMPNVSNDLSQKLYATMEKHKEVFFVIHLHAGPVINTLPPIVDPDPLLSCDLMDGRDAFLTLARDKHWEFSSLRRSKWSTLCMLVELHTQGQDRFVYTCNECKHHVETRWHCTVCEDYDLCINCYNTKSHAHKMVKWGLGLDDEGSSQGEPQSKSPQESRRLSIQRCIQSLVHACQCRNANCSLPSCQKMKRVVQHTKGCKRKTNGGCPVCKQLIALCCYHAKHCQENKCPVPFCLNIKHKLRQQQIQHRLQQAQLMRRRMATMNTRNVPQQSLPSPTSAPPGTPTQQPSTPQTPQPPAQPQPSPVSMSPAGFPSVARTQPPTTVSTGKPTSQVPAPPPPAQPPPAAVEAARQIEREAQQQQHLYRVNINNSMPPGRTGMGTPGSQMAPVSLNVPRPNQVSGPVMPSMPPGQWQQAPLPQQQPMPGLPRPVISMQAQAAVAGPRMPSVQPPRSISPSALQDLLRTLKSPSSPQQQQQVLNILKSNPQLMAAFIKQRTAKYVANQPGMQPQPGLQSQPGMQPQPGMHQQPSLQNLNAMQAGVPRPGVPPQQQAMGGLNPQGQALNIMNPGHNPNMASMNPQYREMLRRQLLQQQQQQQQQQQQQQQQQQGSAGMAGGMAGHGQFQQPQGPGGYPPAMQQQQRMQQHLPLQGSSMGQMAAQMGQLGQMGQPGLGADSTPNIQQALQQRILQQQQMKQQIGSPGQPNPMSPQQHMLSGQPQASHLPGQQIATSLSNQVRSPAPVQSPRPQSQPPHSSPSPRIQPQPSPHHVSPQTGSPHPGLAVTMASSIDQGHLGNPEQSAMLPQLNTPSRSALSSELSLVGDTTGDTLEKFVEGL

SMILES	pIC50
COc1ccccc1-c1cc(=O)n(C)cc1-c1cnn(Cc2ccccc2)c1	< 5.30
Cn1cc(-c2cnn(Cc3ccccc3)c2)c(-c2cnn(CC(=O)O)c2)cc1=O	> 6.30
Cn1cc(COc2cc(=O)n(C)cc2-c2cnn(-c3ccccc3Cl)c2)cn1	> 6.30
CNC(=O)Cn1cc(-c2cn(C)c(=O)cc2-c2ccccc2)cn1	> 6.30
Cc1cc(-c2cnn(C(c3ccccc3)C3CC3)c2)cn(C)c1=O (configuration not stated)	> 6.30
Cn1cc(-c2cnn(CC3CC3)c2)c(-c2ccc(C(F)(F)F)cc2)cc1=O	> 6.30
CNC(=O)c1ccc(-c2cc(=O)n(C)cc2-c2cnn(CC3CC3)c2)cc1	> 6.30
Cn1cc(-c2cnn(CC3CCCCC3)c2)c(-c2ccccc2)cc1=O	> 6.30
CCOc1cc(=O)n(C)cc1-c1cnn(C(C)c2cccc(-c3cnn(C)c3)c2)c1 (configuration not stated)	> 6.30

Continued, values first:

pIC50	SMILES
> 6.30	Cn1cc(-c2cnn(-c3ccccc3-c3nnn[nH]3)c2)c(-c2ccc(F)cc2)cc1=O
> 6.30	COc1cc(-c2cc(=O)n(C)cc2-c2cnn(-c3ccccc3C(=O)NC#N)c2)ccn1
> 6.30	COc1ccc(-c2cc(=O)n(C)cc2-c2cnn(-c3ccccc3C#N)c2)cc1
> 6.30	Cn1cc(-c2cnn(CC3CC3)c2)c(-c2ccc(C(=O)O)cc2)cc1=O
> 6.30	COc1ccc(C#N)c(-n2cc(-c3cn(C)c(=O)cc3-c3ccc(Cl)cc3)cn2)c1
> 6.30	Cn1cc(-c2cnn(Cc3ccccc3)c2)c(-c2ccc(Cl)cc2)cc1=O
> 6.30	COc1ccc(-c2cc(=O)n(C)cc2-c2cnn(-c3ccccc3C(=O)NC#N)c2)cn1
> 6.30	Cn1cc(-c2cnn(-c3ccccc3C(=O)O)c2)c(-c2ccc(Cl)cc2)cc1=O
> 6.30	Cn1cc(-c2cnn(Cc3ccccc3)c2)c(-c2cccc(Cl)c2)cc1=O
> 6.30	COc1ccc(C(=O)O)c(-n2cc(-c3cn(C)c(=O)cc3-c3ccc(Cl)cc3)cn2)c1
> 6.30	Cn1ccc(-c2cc(=O)n(C)cc2-c2cnn(-c3cccc(F)c3C#N)c2)cc1=O
> 6.30	COc1ccc(-c2cc(=O)n(C)cc2-c2cnn(-c3ccccc3C(=O)O)c2)cc1
